# Assay results published in article PMC11249637, “Interaction of the Atypical Tetracyclines Chelocardin and Amidochelocardin with Renal Drug Transporters” (ACS Pharmacology & Translational Science, 2024).
# Legend:
# [1] = design: method as in PMID 38047701; details: 15 mg/kg IV; up to 8 h post administration; cited from earlier work
# [2] = molecular target: T1, mOat1 (Mus musculus, UniProt Q8VC69); experiment: Two-point inhibition of mOat1-mediated PAH uptake in transfected HEK293 cells; assay type: in vitro ADME; details: PAH 10 μM, 1 min
# T1 construct: expressed in transfected cells; host or cells: HEK293
# T1 sequence (Q8VC69 1-545): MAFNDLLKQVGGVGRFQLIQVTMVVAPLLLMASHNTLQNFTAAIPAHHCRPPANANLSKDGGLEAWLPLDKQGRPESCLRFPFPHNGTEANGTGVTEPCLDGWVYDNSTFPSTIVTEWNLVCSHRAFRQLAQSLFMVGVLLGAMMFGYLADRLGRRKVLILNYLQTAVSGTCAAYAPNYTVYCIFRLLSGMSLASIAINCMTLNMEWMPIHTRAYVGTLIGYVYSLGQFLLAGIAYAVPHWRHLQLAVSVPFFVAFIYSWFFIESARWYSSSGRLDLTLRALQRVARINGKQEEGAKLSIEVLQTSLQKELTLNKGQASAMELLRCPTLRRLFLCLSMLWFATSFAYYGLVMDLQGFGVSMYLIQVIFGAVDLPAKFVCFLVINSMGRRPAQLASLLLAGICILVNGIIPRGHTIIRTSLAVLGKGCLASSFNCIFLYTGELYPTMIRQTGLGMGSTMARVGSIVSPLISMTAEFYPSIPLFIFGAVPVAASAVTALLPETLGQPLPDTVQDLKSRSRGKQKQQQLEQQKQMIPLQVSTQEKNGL
# Method: Well-characterized mOct1-, mOct2-, mOat1-, mOat2-, mOat3-, mMate1-, hOAT1-, hOAT3-, hOAT4-, hMRP2-, mMdr1a- and mMdr1b-transfected HEK293 cells and the respective vector-transfected control HEK293 cells were used.[42],[51],[52] All HEK293 cells (transporter-transfected and vector-transfected) were cultured in DMEM (Sigma, high glucose, 10% FBS, 1% penicillin (10,000 Units/mL)/streptomycin (10 mg/mL)) at 37°C under 5% CO2 in humidified atmosphere. The cells were routinely checked for the absence of mycoplasma infection. For the preparation of HEK293 cell monolayers, 24-well plates were pretreated with a poly-D-lysine hydrobromide solution (0.1 mg/mL). Each well was coated with 0.5 mL of poly-D-lysine solution and incubated for at least 15 min. After complete removal of the solution, the plates were dried for 30 min. Cells (vector-transfected and transporter-transfected) treated with trypsin were immediately seeded into 24-well plates and cultured for 3 days before being used for transport experiments.
# For the uptake assay, the growth medium was aspirated, and each well was rinsed three times with 0.5 mL of incubation buffer (HBSS supplemented with 20 mM HEPES, pH 7.4) and incubated for 20 min at 37 °C. Afterward, buffers were removed, and 200 μL of the incubation buffer containing a radiolabeled substrate and the nonlabeled CHD and CDCHD or reference inhibitor (Table S1), respectively, was added to each well and incubated at 37 °C for designated time intervals. […] Cells were solubilized with 0.6 mL of 1N NaOH overnight and transferred into scintillation vials. ^3H and ^14C contents were measured after the addition of 2.5 mL of scintillator in a liquid scintillation counter.
# The cellular protein amount was determined in parallel for each cell line (vector- and transporter-transfected) from six wells in a different 24-well reference plate using the Bradford method. […]
# The inhibitory effect (I(%)) was calculated according to the formula: [drawing 5] […]
smiles,measurement,setting,value
"CC(=O)C1=C(O)[C@@H](N)[C@H]2Cc3c(c(O)c4c(O)c(C)ccc4c3C)C(=O)[C@@]2(O)C1=O [CHD, chelocardin]",urine levels of CHD compared to CDCHD,[1],10 fold
same,inhibitory effect on mOat1,[2]; 1 and 10 μM tested,less than 50%
same,inhibitory effect on mOat1 (in words),[2]; 1 and 10 μM,concentration-dependent inhibitory effects
same,inhibition at 10 µM,"[2]; HEK293, at 10 μM, read-out: inhibitory effect on mOat1",~50%
